Measured values: publication PMC8015229, “Focus on Human Monoamine Transporter Selectivity. New Human DAT and NET Models, Experimental Validation, and SERT Affinity Exploration” (ACS Chemical Neuroscience, 2020)
Like-named read-outs stand apart in the source and are kept apart here.

What was measured:
SERT [1] = biological target: T1, SERT (Homo sapiens, UniProt P31645); assay: [3H]paroxetine binding assay to human platelet membranes
SERT [2] = biological target: T2, SERT (Oryctolagus cuniculus, UniProt A0A5F9CLU6); conditions: rabbit cortical membranes; tested as hydrochloride salts; cited from earlier work
T2 sequence (A0A5F9CLU6 1-628): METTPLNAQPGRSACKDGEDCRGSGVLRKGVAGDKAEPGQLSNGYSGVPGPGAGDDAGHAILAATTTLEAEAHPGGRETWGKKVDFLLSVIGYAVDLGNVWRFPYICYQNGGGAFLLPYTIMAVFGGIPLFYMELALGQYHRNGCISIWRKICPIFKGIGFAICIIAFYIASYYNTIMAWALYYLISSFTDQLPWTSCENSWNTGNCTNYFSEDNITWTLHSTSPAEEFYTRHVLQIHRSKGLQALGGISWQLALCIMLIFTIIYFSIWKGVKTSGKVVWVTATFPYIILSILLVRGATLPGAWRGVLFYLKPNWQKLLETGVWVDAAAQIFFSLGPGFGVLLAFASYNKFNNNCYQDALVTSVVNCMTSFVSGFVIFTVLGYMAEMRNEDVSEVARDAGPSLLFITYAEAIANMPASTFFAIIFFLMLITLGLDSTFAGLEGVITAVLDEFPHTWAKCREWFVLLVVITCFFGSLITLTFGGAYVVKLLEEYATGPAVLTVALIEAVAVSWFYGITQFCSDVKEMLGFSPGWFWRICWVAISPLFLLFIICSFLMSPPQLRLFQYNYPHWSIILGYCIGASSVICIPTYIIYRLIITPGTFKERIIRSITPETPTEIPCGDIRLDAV

NET [3] = biological target: T3, NET (Oryctolagus cuniculus, UniProt G1TDF9); assay: [3H]nisoxetine binding assay to rabbit cortical membranes
T3 construct: tissue Charles River Laboratories, Inc. (animals); host or cells: cerebral cortex of New Zealand White rabbit
T3 sequence (G1TDF9 1-617): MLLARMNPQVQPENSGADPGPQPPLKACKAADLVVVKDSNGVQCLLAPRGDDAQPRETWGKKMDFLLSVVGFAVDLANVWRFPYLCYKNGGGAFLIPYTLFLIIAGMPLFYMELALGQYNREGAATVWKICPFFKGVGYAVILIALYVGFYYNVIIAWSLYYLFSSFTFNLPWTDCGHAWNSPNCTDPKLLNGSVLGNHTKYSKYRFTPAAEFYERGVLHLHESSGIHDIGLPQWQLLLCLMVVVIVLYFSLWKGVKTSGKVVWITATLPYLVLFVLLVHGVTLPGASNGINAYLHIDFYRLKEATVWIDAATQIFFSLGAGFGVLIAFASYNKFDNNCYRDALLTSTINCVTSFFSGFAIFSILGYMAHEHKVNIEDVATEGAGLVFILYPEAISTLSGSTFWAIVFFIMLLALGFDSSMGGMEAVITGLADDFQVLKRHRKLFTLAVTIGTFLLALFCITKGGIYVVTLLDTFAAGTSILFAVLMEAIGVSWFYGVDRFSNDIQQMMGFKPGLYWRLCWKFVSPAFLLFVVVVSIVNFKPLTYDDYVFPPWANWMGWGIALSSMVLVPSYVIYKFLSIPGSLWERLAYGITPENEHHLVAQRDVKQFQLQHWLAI
Protocol: This washing procedure was repeated twice. The resulting pellet was immediately used in the binding assay or frozen at −80 °C until the time of the assay.
Incubation was carried out at 4 °C for 4 h.

SERT [4] = biological target: T1, SERT; assay: [3H]5-HT uptake to human platelets
DAT [5] = biological target: T4, DAT (Oryctolagus cuniculus, UniProt Z9V7K4Q734); conditions: rabbit striatal membranes; tested as hydrochloride salts; read-out: [3H]-WIN 35,428, Ki; cited from earlier work
T4 sequence (Z9V7K4Q734 1-627): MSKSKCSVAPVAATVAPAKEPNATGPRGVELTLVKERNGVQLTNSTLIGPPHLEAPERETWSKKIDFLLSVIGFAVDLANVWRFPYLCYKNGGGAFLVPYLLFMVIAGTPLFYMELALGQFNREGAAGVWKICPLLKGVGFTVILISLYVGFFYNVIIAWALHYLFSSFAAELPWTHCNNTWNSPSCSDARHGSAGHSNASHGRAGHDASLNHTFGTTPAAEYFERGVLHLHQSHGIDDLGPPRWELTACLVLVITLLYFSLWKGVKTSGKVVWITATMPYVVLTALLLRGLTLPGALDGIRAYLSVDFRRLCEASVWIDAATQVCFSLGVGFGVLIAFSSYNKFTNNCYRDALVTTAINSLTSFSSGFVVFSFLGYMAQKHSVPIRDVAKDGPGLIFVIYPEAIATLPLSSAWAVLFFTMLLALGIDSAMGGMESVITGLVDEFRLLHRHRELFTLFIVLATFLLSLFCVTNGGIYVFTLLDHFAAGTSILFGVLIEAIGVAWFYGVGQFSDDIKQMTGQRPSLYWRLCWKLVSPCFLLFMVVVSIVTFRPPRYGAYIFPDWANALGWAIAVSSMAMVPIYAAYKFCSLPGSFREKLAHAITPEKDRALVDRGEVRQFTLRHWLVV

NET [6] = biological target: T3, NET; conditions: read-out: [3H]nisoxetine, Ki; rabbit cortical membranes; cited from earlier work
DAT [7] = conditions: binding affinity for human transporters; cited from earlier work
NET [8] = conditions: cited from earlier work
SERT [9] = biological target: T1, SERT; conditions: cited from earlier work
NET [10] = conditions: binding affinity for rat transporter; cited from earlier work
SERT [11] = conditions: binding affinity for rat transporter; cited from earlier work
DAT [12] = biological target: T4, DAT; assay: [3H]WIN 35,428 binding assay to rabbit striatal membranes; conditions: mean ± SE of three or more experiments, tested as hydrochloride salts
Protocol: (§1) Membranes used in DAT and SERT binding assays were prepared from frozen rabbit striatum and frontal cortex as previously described.[29]
DAT binding assays were performed using 2 nM [^3H]WIN 35,428 (specificity activity, 84.5 Ci mmol^–1; PerkinElmer Life Science) as previously described by Nencetti et al.[29]

SERT [13] = biological target: T2, SERT; assay: [3H]paroxetine binding assay to rabbit cortical membranes
Protocol: as §1

[14] = rabbit cortical membranes, tested as hydrochloride salts
[15] = binding affinity for human transporters

T1 sequence (P31645 whole entry): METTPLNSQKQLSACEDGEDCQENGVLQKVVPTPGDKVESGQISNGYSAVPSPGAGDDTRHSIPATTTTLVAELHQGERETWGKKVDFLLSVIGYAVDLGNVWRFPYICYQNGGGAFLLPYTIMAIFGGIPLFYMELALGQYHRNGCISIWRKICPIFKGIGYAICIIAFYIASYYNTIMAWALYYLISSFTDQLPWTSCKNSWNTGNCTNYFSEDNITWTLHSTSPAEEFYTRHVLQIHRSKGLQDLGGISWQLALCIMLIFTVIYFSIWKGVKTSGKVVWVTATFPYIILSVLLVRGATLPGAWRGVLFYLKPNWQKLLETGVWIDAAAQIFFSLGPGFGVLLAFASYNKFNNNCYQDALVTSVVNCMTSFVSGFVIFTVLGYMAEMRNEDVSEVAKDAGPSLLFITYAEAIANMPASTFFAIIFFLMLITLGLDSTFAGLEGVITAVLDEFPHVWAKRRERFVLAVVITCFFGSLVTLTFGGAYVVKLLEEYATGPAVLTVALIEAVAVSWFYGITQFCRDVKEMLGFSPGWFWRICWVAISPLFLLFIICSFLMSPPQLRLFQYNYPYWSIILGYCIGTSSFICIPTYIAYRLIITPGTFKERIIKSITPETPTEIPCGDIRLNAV

## Cl.FC(F)(F)c1ccc(C2(OCc3ccc4c(c3)OCO4)CCNCC2)cc1 [21d, 4-(Benzo[d][1,3]dioxol-5-ylmethoxy)-4-(4-(trifluoromethyl)phenyl)piperidine Hydrochloride]
SERT [1]
  Ki: 8.72 ± 0.93 nM
SERT [2]
  [3H]paroxetine, Ki: picomolar range
NET [3]; [14]
  Ki: 2450 nM
SERT [4]
  IC50: 4.9 ± 0.5 nM
  Ki: 3.26 nM
DAT [5]
  Ki: 11200 nM

## Fc1ccc([C@@H]2CCNC[C@H]2COc2ccc3c(c2)OCO3)cc1 [compound 1, paroxetine]
NET [6]
  Ki: 80 ± 1 nM

## CCOc1ccccc1OCC1CNCCO1 (stereo not drawn) [compound 16, viloxazine]
DAT [7]
  DAT pKi exp: 5
NET [8]
  NET pKi exp: 6.81

## c1ccc2c(CCC3CCNCC3)c[nH]c2c1 [compound 14, indalpine]
DAT [7]
  DAT pKi exp: 6
SERT [9]; [15]
  SERT pKi exp: 8.76
NET [8]; [15]
  NET pKi exp: 6.29

## CN1[C@H]2CC[C@@H]1[C@@H](C(=O)N1CCCC1)[C@@H](c1ccc(I)cc1)C2 [compound 17, RTI-229]
SERT [9]
  SERT pKi exp: 6.8
NET [8]; [15]
  NET pKi exp: 6.22

## CN1C2CCC1C(C(=O)Oc1ccccc1)C(c1ccc(Cl)cc1)C2 (stereo not drawn) [compound 19, RTI-113]
NET [10]
  NET pKi exp: 5.75
SERT [11]
  SERT pKi exp: 6.67

## Cl.Fc1ccc(COC2(c3ccc(F)cc3)CCNCC2)cc1 [20a, 4-((4-Fluorobenzyl)oxy)-4-(4-fluorophenyl)piperidine Hydrochloride]
DAT [12]
  Ki: > 100000 nM
NET [3]; [14]
  Ki: 520 nM
other
  melting point: 158 to 159 °C

## CN(C)C/C=C(/c1ccc(Br)cc1)c1cccnc1 [compound 18, zimelidine]
DAT [7]
  DAT pKi exp: 4.93

## Cl.Fc1ccccc1COC1(c2ccc(C(F)(F)F)cc2)CCNCC1 [21c, 4-((2-Fluorobenzyl)oxy)-4-(4-(trifluoromethyl)phenyl)piperidine Hydrochloride]
DAT [12]
  Ki: 11100 nM
NET [3]; [14]
  Ki: 2070 nM
other
  melting point: 210 °C (dec.)

## Cl.Fc1ccc(C2(OCc3ccc(C(F)(F)F)cc3)CCNCC2)cc1 [compound 20b, 4-(4-Fluorophenyl)-4-((4-(trifluoromethyl)benzyl)oxy)piperidine Hydrochloride]
SERT [13]
  potency as inhibitor of [3H]paroxetine binding relative to unlabeled paroxetine: ~10 fold
SERT [1]
  Ki: 0.17 ± 0.02 nM
SERT [2]
  [3H]paroxetine, Ki: picomolar range
NET [3]; [14]
  Ki: 10000 nM
SERT [4]
  IC50: 0.13 ± 0.01 nM
  Ki: 0.08 nM
SERT [4]; human platelets, Lineweaver-Burk plot, Vmax unchanged, Km changed
  type of inhibition of [3H]5-HT uptake: competitive
DAT [5]
  Ki: > 100000 nM
other
  melting point: 184 to 185 °C

## COC(=O)[C@H]1[C@@H](c2ccc(Cl)cc2)C[C@@H]2CC[C@H]1N2C [compound 9, RTI-31]
DAT [7]
  DAT pKi exp: 8.57
NET [8]
  NET pKi exp: 7.4

## COc1ccc(OC[C@H]2CN(C)CC[C@@H]2c2ccccc2)cc1 [compound 4, femoxetine]
DAT [7]
  DAT pKi exp: 5.7
NET [8]; [15]
  NET pKi exp: 6.12

## CNCC[C@@H](Oc1ccccc1C)c1ccccc1 [compound 6, atomoxetine]
DAT [7]
  DAT pKi exp: 5.8

## CNCCC(Oc1ccccc1OC)c1ccccc1 (stereo not drawn) [compound 8, nisoxetine]
NET [10]
  NET pKi exp: 9.34

## COCCCC/C(=N\OCCN)c1ccc(C(F)(F)F)cc1 [compound 11, fluvoxamine]
DAT [7]
  DAT pKi exp: 5.03

## COC(=O)[C@H]1[C@@H](c2ccc(I)cc2)C[C@@H]2CC[C@H]1N2C [compound 10, RTI-55]
DAT [7]
  DAT pKi exp: 8.41
SERT [9]
  SERT pKi exp: 8.4
NET [8]
  NET pKi exp: 7.7

## Cl.FC(F)(F)c1ccc(COC2(c3ccc(C(F)(F)F)cc3)CCNCC2)cc1 [21b, 4-((4-(Trifluoromethyl)benzyl)oxy)-4-(4-(trifluoromethyl)phenyl)piperidine Hydrochloride]
SERT [1]
  Ki: 5.6 ± 0.52 nM
SERT [2]
  [3H]paroxetine, Ki: picomolar range
NET [3]; [14]
  Ki: > 10000 nM
SERT [4]
  IC50: 4.2 ± 0.4 nM
  Ki: 2.77 nM
DAT [5]
  Ki: > 100000 nM
other
  melting point: 189 to 190 °C

## Cl.Fc1ccc(COC2(c3ccc(C(F)(F)F)cc3)CCNCC2)cc1 [21a, 4-((4-Fluorobenzyl)oxy)-4-(4-(trifluoromethyl)phenyl)piperidine Hydrochloride]
DAT [12]
  Ki: > 100000 nM
NET [3]
  Ki: > 10000 nM
other
  melting point: 261 °C (dec.)

## Cl.Fc1ccc(C2(OCc3ccccc3F)CCNCC2)cc1 [20c, 4-((2-Fluorobenzyl)oxy)-4-(4-fluorophenyl)piperidine Hydrochloride]
DAT [12]
  Ki: > 100000 nM
NET [3]; [14]
  Ki: 400 nM
other
  melting point: 202 °C

## Cl.Fc1ccc(C2(OCc3ccc4c(c3)OCO4)CCNCC2)cc1 [20d, 4-(Benzo[D][1,3]dioxol-5-ylmethoxy)-4-(4-fluorophenyl)piperidine Hydrochloride]
SERT [13]
  potency as inhibitor of [3H]paroxetine binding relative to unlabeled paroxetine: ~10 fold
SERT [1]
  Ki: 1.71 ± 0.15 nM
SERT [2]
  [3H]paroxetine, Ki: picomolar range
NET [3]; [14]
  Ki: 1740 nM
SERT [4]
  IC50: 2.64 ± 0.3 nM
  Ki: 1.75 nM
DAT [5]
  Ki: > 100000 nM

## c1ccc(CCCN2CCN(CCOC(c3ccccc3)c3ccccc3)CC2)cc1 [compound 13, GBR-12935]
NET [8]; [15]
  NET pKi exp: 6.2
